Reference: US20140221427A1, “ISOTOPOLOGUES OF POMALIDOMIDE” (CELGENE CORPORATION, priority 2011, published 2014)
Like-named read-outs stand apart in the source and are kept apart here.

Experiments:
TNFα = experiment: Inhibition of TNFα in LPS-stimulated hPBMC (ELISA); format: cell-based; settings: LPS-stimulated human PBMC, TNFα by ELISA; read-out: IC50s for TNFα
Experimental: Human peripheral blood mononuclear cells (hPBMC) from normal donors are obtained by Ficoll Hypaque (Pharmacia, Piscataway, N.J., USA) density centrifugation. Cells are cultured in RPMI 1640 (Life Technologies, Grand Island, N.Y., USA) supplemented with 10% AB+human serum (Gemini Bio-products, Woodland, Calif., USA), 2 mM L-glutamine, 100 U/ml penicillin, and 100 μg/ml streptomycin (Life Technologies).
PBMC (2×10^5 cells) are plated in 96-well flat-bottom Costar tissue culture plates (Corning, N.Y., USA) in triplicate. Cells are stimulated with LPS (from Salmonella abortus equi, Sigma cat. no. L-1887, St. Louis, Mo., USA) at 1 ng/ml final in the absence or presence of compounds. Compounds provided herein are dissolved in DMSO (Sigma) and further dilutions are done in culture medium immediately before use. The final DMSO concentration in all assays can be about 0.25%. Compounds are added to cells 1 hour before LPS stimulation. Cells are then incubated for 18-20 hours at 37° C. in 5% CO2, and supernatants are then collected, diluted with culture medium and assayed for TNFα levels by ELISA (Endogen, Boston, Mass., USA). IC50s are calculated using non-linear regression, sigmoidal dose-response, constraining the top to 100% and bottom to 0%, allowing variable slope (GraphPad Prism v3.02).
Potencies of racemic, (R)-, and (S)-pomalidomide in inhibiting TNFα were measured using procedures substantially similar to those described in Section 5.4 above.

IL-2 = experiment: Production of IL-2 in anti-CD3-stimulated purified T cells (ELISA); format: cell-based, human; settings: T cells from PBMC on anti-CD3 (OKT3) coated plates, IL-2 by ELISA, read-out: EC50s for IL-2
Experimental: PBMC are depleted of adherent monocytes by placing 1×10^8 PBMC in 10 ml complete medium (RPMI 1640 supplemented with 10% heat-inactivated fetal bovine serum, 2 mM L-glutamine, 100 U/ml penicillin, and 100 μg/ml streptomycin) per 10 cm tissue culture dish, in 37° C., 5% CO2 incubator for 30-60 minutes. The dish is rinsed with medium to remove all non-adherent PBMC. T cells are purified by negative selection using the following antibody (Pharmingen) and Dynabead (Dynal) mixture for every 1×10^8 non-adherent PBMC: 0.3 ml Sheep anti-mouse IgG beads, 15 μl anti-CD16, 15 μl anti-CD33, 15 μl anti-CD56, 0.23 ml anti-CD19 beads, 0.23 ml anti-HLA class II beads, and 56 μl anti-CD14 beads. The cells and bead/antibody mixture is rotated end-over-end for 30-60 minutes at 4° C. Purified T cells are removed from beads using a Dynal magnet. Typical yield is about 50% T cells, 87-95% CD3′ by flow cytometry.
Tissue culture 96-well flat-bottom plates are coated with anti-CD3 antibody OKT3 at 5 μg/ml in PBS, 100 μl per well, incubated at 37° C. for 3-6 hours, then washed four times with complete medium 100 μl/well just before T cells are added. Compounds are diluted to 20 times of final in a round bottom tissue culture 96-well plate. Final concentrations are about 10 μM to about 0.00064 μM. A 10 mM stock of compounds provided herein is diluted 1:50 in complete for the first 20× dilution of 200 μM in 2% DMSO and serially diluted 1:5 into 2% DMSO. Compound is added at 10 μl per 200 μl culture, to give a final DMSO concentration of 0.1%. Cultures are incubated at 37° C., 5% CO2 for 2-3 days, and supernatants analyzed for IL-2 by ELISA (R&D Systems). […]
In addition, potencies of racemic, (R)-, and (S)-pomalidomide in promoting the production of IL-2 were measured using procedures substantially similar to those described in Section 5.5 above.

SMILES | IC50 (TNFα) [nM] | EC50 (IL-2; Homo sapiens, T-cell) [nM] | EC50 (IL-2) [nM]
Nc1cccc2c1C(=O)N(C1CCC(=O)NC1=O)C2=O (racemic) [racemic pomalidomide, 4-amino-2-(2,6-dixopiperidin-3-yl)isoindoline-1,3-dione] | 13 | 10.3 | –
Nc1cccc2c1C(=O)N([C@@H]1CCC(=O)NC1=O)C2=O [(R)-pomalidomide] | 93.3 | – | 57.2
Nc1cccc2c1C(=O)N([C@H]1CCC(=O)NC1=O)C2=O [(S)-pomalidomide] | 3.9 | – | 12.4
